# Test results as given in patent US10005774B2, “Syk inhibitors” (Gilead Sciences, Inc., priority 2013, dated 2018).
# Biological target: Syk (Homo sapiens, UniProt P43405)
# Assay: High Throughput Syk Biochemical Assay (KinEASE TR-FRET)
# Conditions: TABLE D, 20 μM ATP, 1 μM biotinylated peptide, 0.015 nM Syk, 30 min at room temperature, read-out: IC50
# Procedure: High Throughput Syk Biochemical Assay
# Syk activity was measured using KinEASE (Cisbio), a time-resolved fluorescence resonance energy transfer (TR-FRET) immunoassay. In this assay. Syk-catalyzes the phosporylation of a XL665-labeled peptide substrate. Europium conjugated phospho-tyrosine specific antibody binds the resulting phosphorylated peptide. Formation of phosphorylated peptide is quantified by TR-FRET with Europium as the donor and XL665 the acceptor in a 2-step endpoint assay. In brief, test compounds serially diluted in DMSO were delivered into Corning white, low volume, non-binding 384 well plates using the Echo 550 acoustic liquid dispenser (Labcyte®). Syk enzyme and substrates were dispensed into assay plates using a Multi-Flo (Bio-Tek Instruments). […] Percent inhibition was calculated as follows: % Inhibition=100×(RatioSample−Ratio0% Inhibition)/(Ratio100% Inhibition−Ratio0% Inhibition)
row,IC50 [nM],SMILES
1,5.19,"COc1ccc(-c2cc3ncn(C)c3c(O[C@H](C)[C@H]3CNC(=O)C3)n2)cc1OC [(R)-4-((R)-1-(6-(3,4-dimethoxyphenyl)-3-methyl-3H-imidazo[4,5-c]pyridin-4-yloxy)ethyl)pyrrolidin-2-one]"
2,10.2,"C[C@@H](Oc1nc(-c2cnn(C3CCOCC3)c2)cc2ncn(C)c12)[C@H]1CNC(=O)C1 [(R)-4-((R)-1-(3-methyl-6-(1-(tetrahydro-2H-pyran-4-yl)-1H-pyrazol-4-yl)-3H-imidazo[4,5-c]pyridin-4-yloxy)ethyl)pyrrolidin-2-one]"
3,0.894,C[C@@H](Oc1cc(-c2cnn(C(C)(C)C)c2)cc2ncsc12)[C@H]1CNC(=O)C1 (stereo in doubt) [(R)-4-((R)-1-((5-(1-(tert-butyl)-1H-pyrazol-4-yl)benzo[d]thiazol-7-yl)oxy)ethyl)pyrrolidin-2-one]
4,5,"COc1ccc(-c2cc(O[C@H](C)[C@H]3CNC(=O)C3)c3scnc3c2)cc1OC (stereo in doubt) [(R)-4-((R)-1-((5-(3,4-dimethoxyphenyl)benzo[d]thiazol-7-yl)oxy)ethyl)pyrrolidin-2-one]"
5,12.4,"Cc1nc2cc(-c3cc4ncn(C)c4c(O[C@H](C)[C@H]4CNC(=O)C4)n3)ccc2s1 [(R)-4-((R)-1-((3-methyl-6-(2-methylbenzo[d]thiazol-5-yl)-3H-imidazo[4,5-c]pyridin-4-yl)oxy)ethyl)pyrrolidin-2-one]"
6,9.73,"C[C@@H](Oc1nc(-c2cnc(C(C)(C)C)s2)cc2ncn(C)c12)[C@H]1CNC(=O)C1 [(R)-4-((R)-1-(6-(2-tert-butylthiazol-5-yl)-3-methyl-3H-imidazo[4,5-c]pyridin-4-yloxy)ethyl)pyrrolidin-2-one]"
7,4.46,"C[C@@H](Oc1nc(-c2ccc(N3CCN(S(C)(=O)=O)CC3)cc2)cc2ncn(C)c12)[C@H]1CNC(=O)C1 [(R)-4-((R)-1-(3-methyl-6-(4-(4-(methylsulfonyl)piperazin-1-yl)phenyl)-3H-imidazo[4,5-c]pyridin-4-yloxy)ethyl)pyrrolidin-2-one]"
8,20.1,"Cn1cnc2cc(-c3cnn(C(C)(C)C)c3)nc(O[C@H](CF)[C@H]3CNC(=O)C3)c21 [(R)-4-((S)-1-(6-(1-tert-butyl-1H-pyrazol-4-yl)-3-methyl-3H-imidazo[4,5-c]pyridin-4-yloxy)-2-fluoroethyl)pyrrolidin-2-one]"
9,191,C[C@@H](Oc1cc(-c2cccc(C(F)(F)F)n2)cc2ncn(C)c12)[C@H]1CNC(=O)C1 [(R)-4-((R)-1-((1-methyl-5-(6-(trifluoromethyl)pyridin-2-yl)-1H-benzo[d]imidazol-7-yl)oxy)ethyl)pyrrolidin-2-one]
10,4.03,"C[C@@H](Oc1nc(-c2ccc3c(c2)NCCO3)cc2ncn(C)c12)[C@H]1CNC(=O)C1 [(R)-4-((R)-1-(6-(3,4-dihydro-2H-benzo[b][1,4]oxazin-6-yl)-3-methyl-3H-imidazo[4,5-c]pyridin-4-yloxy)ethyl)pyrrolidin-2-one]"
11,8.65,"CC(C)n1cc(-c2cc3ncn(C)c3c(O[C@H](C)[C@H]3CNC(=O)C3)n2)cn1 [(R)-4-((R)-1-(6-(1-isopropyl-1H-pyrazol-4-yl)-3-methyl-3H-imidazo[4,5-c]pyridin-4-yloxy)ethyl)pyrrolidin-2-one]"
12,0.321,"COc1ccc(-c2cn3ncc(Cl)c3c(O[C@H](C)[C@H]3CNC(=O)C3)n2)cc1OC [(R)-4-((R)-1-((3-chloro-6-(3,4-dimethoxyphenyl)pyrazolo[1,5-a]pyrazin-4-yl)oxy)ethyl)pyrrolidin-2-one]"
13,25.4,"COc1ccc(-c2cc3nc(C)n(C)c3c(O[C@H](C)[C@H]3CNC(=O)C3)n2)cc1OC [(4R)-4-((1R)-1-(6-(3,4-dimethoxyphenyl)-2,3-dimethyl-3a,7a-dihydro-3H-imidazo[4,5-c]pyridin-4-yloxy)ethyl)pyrrolidin-2-one]"

# Same assay, conditions: table 'ALL NEW COMPOUNDS IN 2014', 20 μM ATP, 1 μM biotinylated peptide, 0.015 nM Syk, 30 min at room temperature, read-out: Syk IC50
row,IC50 [nM],SMILES
1,10.2,"Cc1ncc(-c2cc3ncn(C4CC4)c3c(O[C@H](C)[C@H]3CNC(=O)C3)n2)s1 [(R)-4-((R)-1-((3-cyclopropyl-6-(2-methylthiazol-5-yl)-3H-imidazo[4,5-c]pyridin-4-yl)oxy)ethyl)pyrrolidin-2-one]"
2,5.45,"Cc1nnc(-c2cc(O[C@H](C)[C@H]3CNC(=O)C3)c3c(c2)ncn3C2CC2)s1 [(R)-4-((R)-1-((1-cyclopropyl-5-(5-methyl-1,3,4-thiadiazol-2-yl)-1H-benzo[d]imidazol-7-yl)oxy)ethyl)pyrrolidin-2-one]"
3,2.37,"C[C@@H](Oc1nc(-c2ccc(N3CCN(C4COC4)CC3)c(F)c2)cc2ncn(C3CC3)c12)[C@H]1CNC(=O)C1 [(R)-4-((R)-1-((3-cyclopropyl-6-(3-fluoro-4-(4-(oxetan-3-yl)piperazin-1-yl)phenyl)-3H-imidazo[4,5-c]pyridin-4-yl)oxy)ethyl)pyrrolidin-2-one]"
4,5.22,"COc1cc(-c2cc3ncn(C4CC4)c3c(O[C@H](C)[C@H]3CNC(=O)C3)n2)ccc1OC(F)F [(R)-4-((R)-1-((3-cyclopropyl-6-(4-(difluoromethoxy)-3-methoxyphenyl)-3H-imidazo[4,5-c]pyridin-4-yl)oxy)ethyl)pyrrolidin-2-one]"
5,8.44,"C[C@@H](Oc1nc(-c2ccnc(C3C=NN=C3)c2)cc2ncn(C3CC3)c12)[C@H]1CNC(=O)C1 [(R)-4-((R)-1-((6-(2-(1H-pyrazol-4-yl)pyridin-4-yl)-3-cyclopropyl-3H-imidazo[4,5-c]pyridin-4-yl)oxy)ethyl)pyrrolidin-2-one]"
6,5.02,C[C@@H](Oc1cc(-c2ccc3c(cnn3C)c2)cc2ncn(C3CC3)c12)[C@H]1CNC(=O)C1 [(R)-4-((R)-1-((1-cyclopropyl-5-(1-methyl-1H-indazol-5-yl)-1H-benzo[d]imidazol-7-yl)oxy)ethyl)pyrrolidin-2-one]
7,2.15,Cc1cc(-c2cc(O[C@H](C)[C@H]3CNC(=O)C3)c3c(c2)ncn3C2CC2)ccc1N1CCN(C2COC2)CC1 [(R)-4-((R)-1-((1-cyclopropyl-5-(3-methyl-4-(4-(oxetan-3-yl)piperazin-1-yl)phenyl)-1H-benzo[d]imidazol-7-yl)oxy)ethyl)pyrrolidin-2-one]
8,2.15,"Cc1cc(-c2cc(O[C@H](C)[C@H]3CNC(=O)C3)c3c(c2)ncn3C2CC2)nn1C [(R)-4-((R)-1-((1-cyclopropyl-5-(1,5-dimethyl-1H-pyrazol-3-yl)-1H-benzo[d]imidazol-7-yl)oxy)ethyl)pyrrolidin-2-one]"
9,23.1,COc1cc(-c2cc(O[C@H](C)[C@H]3CNC(=O)C3)c3c(c2)ncn3C2CC2)ccc1OC(F)F [(R)-4-((R)-1-((1-cyclopropyl-5-(4-(difluoromethoxy)-3-methoxyphenyl)-1H-benzo[d]imidazol-7-yl)oxy)ethyl)pyrrolidin-2-one]
10,3.2,C[C@@H](Oc1cc(-c2ccc(N3CCN(C4COC4)CC3)c(C#N)c2)cc2ncn(C3CC3)c12)[C@H]1CNC(=O)C1 [5-(1-cyclopropyl-7-((R)-1-((R)-5-oxopyrrolidin-3-yl)ethoxy)-1H-benzo[d]imidazol-5-yl)-2-(4-(oxetan-3-yl)piperazin-1-yl)benzonitrile]
11,2.31,"C[C@@H](Oc1nc(-c2ccc(C3CCN(C4COC4)CC3)cc2)cc2ncn(C3CC3)c12)[C@H]1CNC(=O)C1 [(R)-4-((R)-1-((3-cyclopropyl-6-(4-(1-(oxetan-3-yl)piperidin-4-yl)phenyl)-3H-imidazo[4,5-c]pyridin-4-yl)oxy)ethyl)pyrrolidin-2-one]"
12,7.55,"C[C@@H](Oc1nc(-c2ccc3c(c2)N(C)C(=O)C32CN(C)C2)cc2ncn(C3CC3)c12)[C@H]1CNC(=O)C1 [6′-(3-cyclopropyl-4-((R)-1-((R)-5-oxopyrrolidin-3-yl)ethoxy)-3H-imidazo[4,5-c]pyridin-6-yl)-1,1′-dimethylspiro[azetidine-3,3′-indolin]-2′-one]"
13,1.31,"C[C@@H](Oc1nc(-c2ccc(N3CCN(S(=O)(=O)C4COC4)CC3)cc2)cc2ncn(C3CC3)c12)[C@H]1CNC(=O)C1 [(R)-4-((R)-1-((3-cyclopropyl-6-(4-(4-(oxetan-3-ylsulfonyl)piperazin-1-yl)phenyl)-3H-imidazo[4,5-c]pyridin-4-yl)oxy)ethyl)pyrrolidin-2-one]"
14,1.99,C[C@@H](Oc1cc(-c2cnn(C(C)(C)CO)c2)cc2ncn(C3CC3)c12)[C@H]1CNC(=O)C1 [(R)-4-((R)-1-((1-cyclopropyl-5-(1-(1-hydroxy-2-methylpropan-2-yl)-1H-pyrazol-4-yl)-1H-benzo[d]imidazol-7-yl)oxy)ethyl)pyrrolidin-2-one]
15,17.2,"C[C@@H](Oc1nc(-c2cnc(N3CCN(C4COC4)CC3)c(F)c2)cc2ncn(C3CC3)c12)[C@H]1CNC(=O)C1 [(R)-4-((R)-1-((3-cyclopropyl-6-(5-fluoro-6-(4-(oxetan-3-yl)piperazin-1-yl)pyridin-3-yl)-3H-imidazo[4,5-c]pyridin-4-yl)oxy)ethyl)pyrrolidin-2-one]"
16,1.12,"CC(C)S(=O)(=O)N1CCN(c2ccc(-c3cc4ncn(C5CC5)c4c(O[C@H](C)[C@H]4CNC(=O)C4)n3)cc2)CC1 [(R)-4-((R)-1-((3-cyclopropyl-6-(4-(4-(isopropylsulfonyl)piperazin-1-yl)phenyl)-3H-imidazo[4,5-c]pyridin-4-yl)oxy)ethyl)pyrrolidin-2-one]"

row,SMILES,IC50 [nM]
1,"C[C@@H](Oc1nc(-c2ccc(N3CC4CC(C3)O4)cc2)cc2ncn(C3CC3)c12)[C@H]1CNC(=O)C1 [(4R)-4-((1R)-1-((6-(4-(6-oxa-3-azabicyclo[3.1.1]heptan-3-yl)phenyl)-3-cyclopropyl-3H-imidazo[4,5-c]pyridin-4-yl)oxy)ethyl)pyrrolidin-2-one]",3.21
